In this test the target is T1, human recombinant 5-HT2c receptor (Homo sapiens, UniProt P28335).
T1 construct: expressed in transfected cells; host or cells: CHO K1 (Chinese hamster ovary), stably transfected
T1 sequence (P28335 33-458): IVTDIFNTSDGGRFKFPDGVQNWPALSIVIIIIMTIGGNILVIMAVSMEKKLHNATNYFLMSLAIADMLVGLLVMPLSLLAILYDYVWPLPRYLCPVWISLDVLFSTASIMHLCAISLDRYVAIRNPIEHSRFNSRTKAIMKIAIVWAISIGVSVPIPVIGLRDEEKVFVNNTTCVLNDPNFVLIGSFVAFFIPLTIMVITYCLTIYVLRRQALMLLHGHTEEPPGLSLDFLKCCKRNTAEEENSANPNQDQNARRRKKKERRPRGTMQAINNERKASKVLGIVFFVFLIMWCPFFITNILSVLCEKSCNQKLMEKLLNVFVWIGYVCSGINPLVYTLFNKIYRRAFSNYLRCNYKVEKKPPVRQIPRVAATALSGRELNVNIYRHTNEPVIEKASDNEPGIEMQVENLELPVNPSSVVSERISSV
Description: FLIPR fluorescent Ca2+ mobilisation agonist assay in CHO K1 cells (Method 1). The test is classed as cell-based. Conditions: for Emax: percentage of mean maximal response to 10 μM 5-HT; for EC50: agonist affinity, FLIPR. The method, then: The compounds of the invention were evaluated for biological activity by measuring the agonist affinity (EC50) and efficacy (Emax) at the human recombinant 5-HT2c receptor expressed in CHO K1 cells, using a fluorescent based Ca^2+ mobilisation assay format compatible with FLIPR technology (Method 1). Additionally, the binding activity of a compound was determined by measuring its affinity for the human recombinant 5-HT2c receptor membranes from Swiss 3T3 cells (Method 2).
The agonist affinity of the compounds were tested by measuring their ability to induce a fluorescent based Ca^2+ mobilization signal in a FLIPR assay using CHO K1 cells expressing recombinant human 5-HT2C receptor. Both agonist affinity (EC50) and efficacy (Emax) were determined.
Chinese hamster ovary cells (CHO K1) stably transfected with the 5-HT2c receptor were cultured under standard cell culture techniques. Specifically, cells were grown at 37° C. and 5% CO2 in Dulbecco's Modified Eagle's Medium (DMEM) culture media supplemented with 10% dialysed foetal calf serum (FCS), 1% non-essential amino acids, 1 mM sodium pyruvate, 800 μg/mL geneticin and 50 μg/ml zeocin. Cells were harvested for passaging and storage using trypsin-EDTA, centrifugation and resuspension in culture medium. Cells were grown to 60-80% confluency, harvested and adjusted to 15-20×10^6 cells/ml/vial in medium/10% DMSO and stored long-term at −80° C.
Cells were seeded into black-walled clear-bottomed 384 well plates 24 h before use. Frozen cells were defrosted in a 37° C. water bath and immediately transferred into 1 mL/vial 37° C. culture medium, diluted to 10 ml and DMSO removed by centrifugation. The cells were resuspended in 15 ml/vial of cell culture medium, counted and adjusted to give 500,000 cells/mL (10,000 cells/well). […] of cell suspension was added to the 384 well plates which were then incubated overnight at 37° C.
The maximum agonist response was determined with 5-HT at a final assay concentration of 10 μM in the diluent above. The minimum response was determined with Dulbeccos PBS (+CaCl2, +MgCl2) with 0.9% DMSO and 0.05% pluronic F-127. Test compounds, maximum and minimum controls were added to a 384 well polypropylene plate.
The FLIPR calcium assay reagent was diluted with assay buffer (Hank's Balanced Salt Solution (HBSS))/20 mM HEPES and 2.5 mM probenecid (diluted with 1M Sodium hydroxide and DPBS (+CaCl2, +MgCl2)).
20 μl/well FLIPR calcium assay reagent was added to the cell plates, which were incubated for 1 h at 37° C. Cell plates and compound plates were then transferred onto the FLIPR. The assay was run using the appropriate FLIPR program, which initiates the reaction by transferring 15 μL compound into the corresponding, well of the cell plate.
The statistical parameter exported from each well was the max peak height of the response.

Each structure is given as a SMILES string.

The text below walks through data of patent US7928099B2, “Pyrimido [4,5-D] azepine derivatives as 5-HT2c agonists” (Pfizer Inc, priority 2007, dated 2011).

One may read the Emax as the greatest response seen or fitted, relative to the assay's reference. On to `CNc1nc(C(C)c2ccccc2)nc2c1CCNCC2` (stereo not shown) [Example 3, N-methyl-2-(1-phenylethyl)-6,7,8,9-tetrahydro-5H-pyrimido[4,5-d]azepin-4-amine], for which, where the note is “efficacy”, the maximum response (Emax) was 60.8%. For orientation: EC50 means the concentration at which the effect is half-maximal. Regarding `Clc1ccc(Cc2ncc3c(n2)CCNCC3)cc1` [Example 57, 2-(4-Chlorobenzyl)-6,7,8,9-tetrahydro-5H-pyrimido[4,5-d]azepine], the EC50 worked out at 192 nM. The maximum response (Emax) (CHO-K1, efficacy) amounted to 64.7%. Consider `Fc1ccccc1Cc1ncc2c(n1)CCNCC2` [Example 60, 2(2-Fluorobenzyl)-6,7,8,9-tetrahydro-5H-pyrimido[4,5-d]azepine], for which the 50% effective concentration (EC50) was 194 nM. Further, the Emax (CHO-K1, efficacy) was found to be 65.1%. As for `Fc1cccc(Cc2ncc3c(n2)CCNCC3)c1` [Example 61, 2-(3-Fluorobenzyl)-6,7,8,9-tetrahydro-5H-pyrimido[4,5-d]azepine], the 50% effective concentration (EC50) was 125 nM. In addition, the Emax (CHO-K1, efficacy) was determined as 67.1%. For `Cc1ccc(Cc2ncc3c(n2)CCNCC3)cc1` [Example 64, 2-(4-Methylbenzyl)-6,7,8,9-tetrahydro-5H-pyrimido[4,5-d]azepine], the EC50 turned out to be 100 nM. Also, the Emax (CHO-K1, efficacy) turned out to be 63.1%. Turning to `c1ccc(Cc2nc3c(c(OCCc4ccccn4)n2)CCNCC3)cc1` [Example 73, 2-benzyl-4-(2-pyridin-2-ylethoxy)-6,7,8,9-tetrahydro-5H-pyrimido[4,5-d]azepine], the EC50 came to 8.61 nM. Moreover, the Emax (CHO-K1, efficacy) turned out to be 83.3%. Consider `c1ccc(Cc2nc3c(c(OCC4CCCO4)n2)CCNCC3)cc1` (stereo not shown) [Example 74, 2-benzyl-4-(2-tetra-hydrofuran-2-ylmethoxy)-6,7,8,9-tetrahydro-5H-pyrimido[4,5-d]azepine], for which the concentration giving a half-maximal response (EC50) was determined as 17.1 nM. Moreover, the Emax (CHO-K1, efficacy) came out at 86.7%. With `N#Cc1ccc(CCOc2nc(Cc3ccccc3)nc3c2CCNCC3)cc1` [Example 75, 4-{2-[(2-benzyl-6,7,8,9-tetrahydro-5H-pyrimido-[4,5-d]azepin-4-yl)oxy]ethyl}-benzonitrile], the EC50 is 58.1 nM. Moreover, for the setting “CHO-K1, efficacy”, the Emax was determined as 90.1%.

As to `CC(C)COc1nc(Cc2ccccc2)nc2c1CCNCC2` [Example 76, 2-benzyl-4-isobutoxy-6,7,8,9-tetrahydro-5H-pyrimido[4,5-d]azepine], the half-maximal effective concentration (EC50) is 127 nM. Further, the Emax (CHO-K1, efficacy) came out at 34%. In the case of `Cc1ncccc1COc1nc(Cc2ccccc2)nc2c1CCNCC2` [Example 77, 2-benzyl-4-[(2-methyl-pyridin-3-yl)methoxy]-6,7,8,9-tetrahydro-5H-pyrimido[4,5-d]azepine], the 50% effective concentration (EC50) is 130 nM. The Emax (CHO-K1, efficacy) amounted to 70.3%.

Regarding `CN1CCC[C@H]1COc1nc(Cc2ccccc2)nc2c1CCNCC2` [Example 78, 2-benzyl-4-{[(2S)-1-methylpyrrolidin-2-yl]methoxy}-6,7,8,9-tetrahydro-5H-pyrimido[4,5-d]azepine], the EC50 is 138 nM. Further, where the note is “CHO-K1, efficacy”, the Emax is 69.5%. Consider `c1ccc(Cc2nc3c(c(OCCc4ccncc4)n2)CCNCC3)cc1` [Example 79, 2-benzyl-4-(2-pyridin-4-ylethoxy)-6,7,8,9-tetrahydro-5H-pyrimido[4,5-d]azepine], for which the concentration for a half-maximal effect (EC50) was determined as 154 nM. Also, the Emax (CHO-K1, efficacy) stood at 67.3%. As to `c1ccc(Cc2nc3c(c(OCC4CCOCC4)n2)CCNCC3)cc1` [Example 80, 2-benzyl-4-(tetrahydro-2H-pyran-4-ylmethoxy)-6,7,8,9-tetrahydro-5H-pyrimido[4,5-d]azepine], the EC50 is 184 nM. In addition, the Emax (CHO-K1, efficacy) is 74.2%. On to `CC(C)(C)OCCOc1nc(Cc2ccccc2)nc2c1CCNCC2` [Example 81, 2-benzyl-4-(2-tert-butoxyethoxy)-6,7,8,9-tetrahydro-5H-pyrimido[4,5-d]azepine], for which the EC50 is 195 nM. Besides, under “CHO-K1, efficacy”, the maximal response (Emax) was determined as 60.3%. With `CC(CN1CCOCC1)Oc1nc(Cc2ccccc2)nc2c1CCNCC2` (stereo not shown) [Example 82, 2-benzyl-4-(1-methyl-2-morpholin-4-ylethoxy)-6,7,8,9-tetrahydro-5H-pyrimido[4,5-d]azepine], the half-maximal effective concentration (EC50) is 304 nM. Besides, the maximal effect (Emax) (CHO-K1, efficacy) is 71.9%. With `CC(COc1nc(Cc2ccccc2)nc2c1CCNCC2)N(C)C` (stereo not shown) [Example 83, 1-[(2-benzyl-6,7,8,9-tetrahydro-5H-pyrimido-[4,5-d]azepin-4-yl)oxy]-N,N-dimethylpropan-2-amine], the EC50 is 338 nM. Further, the maximum response (Emax) (CHO-K1, efficacy) was determined as 45.7%.

As to `FC(F)(F)CCCOc1nc(Cc2ccccc2)nc2c1CCNCC2` [Example 84, 2-benzyl-4-(4,4,4-trifluorobutoxy)-6,7,8,9-tetrahydro-5H-pyrimido[4,5-d]azepine], the EC50 came to 395 nM. Further, under “CHO-K1, efficacy”, the maximal response (Emax) worked out at 36.4%. `CN1CCC(COc2nc(Cc3ccccc3)nc3c2CCNCC3)CC1` [Example 85, 2-benzyl-4-[(1-methyl-piperidin-4-yl)methoxy]-6,7,8,9-tetrahydro-5H-pyrimido[4,5-d]azepine]: the EC50 came to 421 nM. Further, the maximal response (Emax) (CHO-K1, efficacy) was determined as 86.3%. Turning to `CCNc1nc(N2CCc3ccccc3C2)nc2c1CCNCC2` [Example 87, 2-(3,4-dihydroisoquinolin-2(1H)-yl)-N-ethyl-6,7,8,9-tetrahydro-5H-pyrimido-[4,5-d]azepin-4-amine], the EC50 was 48.3 nM. For the same compound, for the setting “CHO-K1, efficacy”, the Emax was 57.1%. Regarding `c1ccc2c(c1)CCN(c1nc3c(c(N4CCSCC4)n1)CCNCC3)C2` [Example 88, 2-(3,4-dihydroisoquinolin-2(1H)-yl)-4-thiomorpholin-4-yl-6,7,8,9-tetrahydro-5H-pyrimido[4,5-d]-azepin-4-amine], the EC50 was 838 nM. Further, where the note is “CHO-K1, efficacy”, the maximum response (Emax) is 67.6%. In the same order, the values of `CCCCNc1nc(N2CCSCC2)nc2c1CCNCC2` [Example 89, N-butyl-2-thiomorpholin-4-yl-6,7,8,9-tetrahydro-5H-pyrimido[4,5-d]-azepin-4-amine] are 33.6 nM and 48.2%. Turning to `c1ccc(CCNc2nc(N3CCSCC3)nc3c2CCNCC3)cc1` [Example 91, N-(2-phenylethyl)-2-thiomorpholin-4-yl-6,7,8,9-tetrahydro-5H-pyrimido-[4,5-d]azepin-4-amine], the EC50 is 186 nM. Also, the maximal effect (Emax) (CHO-K1, efficacy) amounted to 69.6%. In the case of `CCN(C)c1nc(N2CCSCC2)nc2c1CCNCC2` [Example 92, N-ethyl-N-methyl-2-thiomorpholin-4-yl-6,7,8,9-tetrahydro-5H-pyrimido-[4,5-d]azepin-4-amine], the concentration giving a half-maximal response (EC50) is 90 nM. Further, where the note is “CHO-K1, efficacy”, the Emax worked out at 77.3%. Take `CNc1nc(N2CCSCC2)nc2c1CCNCC2` [Example 93, N-methyl-2-thio-morpholin-4-yl-6,7,8,9-tetrahydro-5H-pyrimido-[4,5-d]azepin-4-amine]: the concentration giving a half-maximal response (EC50) is 11.5 nM. The Emax (CHO-K1, efficacy) was 77%. Turning to `C1Cc2nc(N3CCSCC3)nc(N3CCSCC3)c2CCN1` [Example 94, 2,4-dithiomorpholin-4-yl-6,7,8,9-tetrahydro-5H-pyrimido[4,5-d]azepine], the 50% effective concentration (EC50) stood at 261 nM. Further, the maximum response (Emax) (CHO-K1, efficacy) stood at 80.8%. On to `CCN(C)c1nc(N2CCOCC2)nc2c1CCNCC2` [Example 95, N-ethyl-N-methyl-2-morpholin-4-yl-6,7,8,9-tetrahydro-5H-pyrimido-[4,5-d]azepin-4-amine], for which the EC50 was 229 nM. The Emax (CHO-K1, efficacy) is 88.4%. With `C1Cc2nc(N3CCOCC3)nc(N3CCSCC3)c2CCN1` [Example 96, 2-morpholin-4-yl-4-thio-morpholin-4-yl-6,7,8,9-tetrahydro-5H-pyrimido-[4,5-d]azepin-4-amine], the EC50 turned out to be 311 nM. Further, the Emax (CHO-K1, efficacy) turned out to be 66.9%.

For `CN(C)c1nc(N2CCOCC2)nc2c1CCNCC2` [Example 97, N,N-dimethyl-2-morpholin-4-yl-6,7,8,9-tetrahydro-5H-pyrimido-[4,5-d]azepin-4-amine], the concentration for a half-maximal effect (EC50) came to 67.6 nM. The maximum response (Emax) (CHO-K1, efficacy) stood at 84.6%.
